For the experiment, the target named is T1, human full-length recombinant PKC βII (Homo sapiens, UniProt P05771).
T1 construct: Active human full-length recombinant PKC βII; purchased Invitrogen GmbH, Darmstadt, Germany
Kind of experiment: Determination of PKC βII inhibition (Caliper mobility-shift kinase assay, Fluorescein-RFARKGSLRQKNV peptide substrate). As to conditions: example compounds at a final concentration of 1.14 μM (±0.15 μM). The class given is biochemical. The method in brief:
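Full-length PKC βII (30 ng/ml in pre-dilution) with PS/DAG/Ca2+ activators, pH 7.4; fluorescein peptide and ATP at 3 μM and 120 μM before mixing. Reaction ran 60 min at 32 °C, was EDTA-stopped, and was read by mobility shift. % inhibition came from product/(substrate+product) peak heights, tested at 1.14 μM final.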

What is called inhibition is the drop in the measured response relative to a control, in per cent. Broadly, the % Inhibition is the change of the read-out against control, counted positive when it falls.

T1 sequence (P05771 1-673 isoform P05771-2): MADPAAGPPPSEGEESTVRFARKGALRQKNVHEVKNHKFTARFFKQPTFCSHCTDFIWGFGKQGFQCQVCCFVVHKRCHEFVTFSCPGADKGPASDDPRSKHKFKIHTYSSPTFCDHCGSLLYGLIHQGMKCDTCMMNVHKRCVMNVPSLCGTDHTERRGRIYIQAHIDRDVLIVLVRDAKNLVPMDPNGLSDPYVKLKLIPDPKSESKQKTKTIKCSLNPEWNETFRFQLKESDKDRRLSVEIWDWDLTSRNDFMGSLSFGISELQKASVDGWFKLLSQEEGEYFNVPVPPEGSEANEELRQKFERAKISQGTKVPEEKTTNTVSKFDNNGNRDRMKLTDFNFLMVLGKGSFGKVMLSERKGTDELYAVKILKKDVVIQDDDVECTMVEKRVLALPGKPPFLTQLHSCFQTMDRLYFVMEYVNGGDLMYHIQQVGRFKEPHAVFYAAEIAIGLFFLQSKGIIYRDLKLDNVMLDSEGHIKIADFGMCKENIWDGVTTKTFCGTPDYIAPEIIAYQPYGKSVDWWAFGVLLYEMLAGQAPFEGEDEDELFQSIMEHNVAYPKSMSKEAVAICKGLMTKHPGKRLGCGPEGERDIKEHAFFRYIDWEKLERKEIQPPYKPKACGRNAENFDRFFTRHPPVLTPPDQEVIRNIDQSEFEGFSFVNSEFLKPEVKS

For `Cc1n[nH]c2nc(-c3ccc(O)cc3F)cc(C(=O)N3CCNCC3C(F)(F)F)c12` (stereo not shown) [Example 60, [6-(2-Fluoro-4-hydroxy-phenyl)-3-methyl-1H-pyrazolo[3,4-b]pyridin-4-yl]-(2-trifluoromethyl-piperazin-1-yl)-methanone], the inhibition at 1.14 µM was found to be 98%.

Consider `Cc1n[nH]c2nc(-c3ccc(O)cc3F)cc(C(=O)NCC3(N)CCCCCC3)c12` [Example 61, 6-(2-Fluoro-4-hydroxy-phenyl)-3-methyl-1H-pyrazolo[3,4-b]pyridine-4-carboxylic acid (1-amino-cycloheptylmethyl)-amide], for which the inhibition at 1.14 µM was 92%.

As for `CCC1(NC(=O)c2cc(-c3ccc(O)cc3F)nc3[nH]nc(C)c23)CCCNC1` (stereo not shown) [Example 62, 6-(2-Fluoro-4-hydroxy-phenyl)-3-methyl-1H-pyrazolo[3,4-b]pyridine-4-carboxylic acid (3-ethyl-piperidin-3-yl)-amide], the inhibition at 1.14 µM stood at 100%.

Regarding `Cc1n[nH]c2nc(-c3ccc(O)cc3F)cc(C(=O)N3CC(C)(C)NCC3(C)C)c12` [Example 63, [6-(2-Fluoro-4-hydroxy-phenyl)-3-methyl-1H-pyrazolo[3,4-b]pyridin-4-yl]-(2,2,5,5-tetramethyl-piperazin-1-yl)-methanone], the inhibition at 1.14 µM is 100%.

Take `Cc1n[nH]c2nc(-c3ccc(O)cc3F)cc(C(=O)N3CCNCC34CC4)c12` [Example 64, (4,7-Diaza-spiro[2.5]oct-4-yl)-[6-(2-fluoro-4-hydroxy-phenyl)-3-methyl-1H-pyrazolo[3,4-b]pyridin-4-yl]-methanone]: the inhibition at 1.14 µM worked out at 98%.

For `CCC(CCN)NC(=O)c1cc(-c2ccc(O)cc2F)nc2[nH]nc(C)c12` (stereo not shown) [Example 65, 6-(2-Fluoro-4-hydroxy-phenyl)-3-methyl-1H-pyrazolo[3,4-b]pyridine-4-carboxylic acid (3-amino-1-ethyl-propyl)-amide], the inhibition at 1.14 µM was found to be 94%.

In the case of `Cc1n[nH]c2nc(-c3ccc(O)cc3F)cc(C(=O)NC(C)(C)CCN)c12` [Example 66, 6-(2-Fluoro-4-hydroxy-phenyl)-3-methyl-1H-pyrazolo[3,4-b]pyridine-4-carboxylic acid (3-amino-1,1-dimethyl-propyl)-amide], the inhibition at 1.14 µM was found to be 93%.

As for `Cc1n[nH]c2nc(-c3ccc(O)cc3F)cc(C(=O)NCCC(C)(C)N)c12` [Example 67, 6-(2-Fluoro-4-hydroxy-phenyl)-3-methyl-1H-pyrazolo[3,4-b]pyridine-4-carboxylic acid (3-amino-3-methyl-butyl)-amide], the inhibition at 1.14 µM is 86%.

Take `CCC[C@H]1CN(C(=O)c2cc(-c3ccc(O)cc3)nc3[nH]nc(C)c23)CCN1` [Example 68, [6-(4-Hydroxy-phenyl)-3-methyl-1H-pyrazolo[3,4-b]pyridin-4-yl]-((S)-3-propyl-piperazin-1-yl)-methanone]: the inhibition at 1.14 µM is 88%.

`COc1ccc(C2CNCCN2C(=O)c2cc(-c3ccc(O)cc3)nc3[nH]nc(C)c23)cc1` (stereo not shown) [Example 69, [6-(4-Hydroxy-phenyl)-3-methyl-1H-pyrazolo[3,4-b]pyridin-4-yl]-[2-(4-methoxy-phenyl)-piperazin-1-yl]-methanone]: the inhibition at 1.14 µM amounted to 100%.

On to `Cc1n[nH]c2nc(-c3ccc(O)cc3)cc(C(=O)N3CC(C)NCC3c3ccccc3)c12` (stereo not shown) [Example 70, [6-(4-Hydroxy-phenyl)-3-methyl-1H-pyrazolo[3,4-b]pyridin-4-yl]-(5-methyl-2-phenyl-piperazin-1-yl)-methanone], for which the inhibition at 1.14 µM is 92%.

For `Cc1n[nH]c2nc(-c3ccc(O)cc3)cc(C(=O)N3CC4CCC3CN4)c12` (stereo not shown) [Example 71, 2,5-Diaza-bicyclo[2.2.2]oct-2-yl-[6-(4-hydroxy-phenyl)-3-methyl-1H-pyrazolo[3,4-b]pyridin-4-yl]-methanone], the inhibition at 1.14 µM was determined as 95%.

On to `COc1cccc(C2CNCCN2C(=O)c2cc(-c3ccc(O)cc3)nc3[nH]nc(C)c23)c1` (stereo not shown) [Example 72, [6-(4-Hydroxy-phenyl)-3-methyl-1H-pyrazolo[3,4-b]pyridin-4-yl]-[2-(3-methoxy-phenyl)-piperazin-1-yl]-methanone], for which the inhibition at 1.14 µM was 94%.

As for `Cc1n[nH]c2nc(-c3ccc(O)cc3)cc(C(=O)NC3CCNCC3)c12` [Example 74, 6-(4-Hydroxy-phenyl)-3-methyl-1H-pyrazolo[3,4-b]pyridine-4-carboxylic acid piperidin-4-ylamide], the inhibition at 1.14 µM came out at 47%.

Consider `Cc1n[nH]c2nc(-c3ccc(O)cc3)cc(C(=O)N3CCCNCC3)c12` [Example 75, [1,4]Diazepan-1-yl-[6-(4-hydroxy-phenyl)-3-methyl-1H-pyrazolo[3,4-b]pyridin-4-yl]-methanone], for which the inhibition at 1.14 µM was found to be 89%.

For the compound `Cc1n[nH]c2nc(-c3ccc(O)cc3)cc(C(=O)N3CCCC(N)C3)c12` (stereo not shown) [Example 76, (3-Amino-piperidin-1-yl)-[6-(4-hydroxy-phenyl)-3-methyl-1H-pyrazolo[3,4-b]pyridin-4-yl]-methanone], the inhibition at 1.14 µM worked out at 88%.

Turning to `Cc1n[nH]c2nc(-c3ccc(O)cc3)cc(C(=O)N[C@H]3CC[C@H](N)CC3)c12` [Example 77, 6-(4-Hydroxy-phenyl)-3-methyl-1H-pyrazolo[3,4-b]pyridine-4-carboxylic acid (trans-4-amino-cyclohexyl)-amide], the inhibition at 1.14 µM was found to be 60%.

`COc1ccccc1C1CNCCN1C(=O)c1cc(-c2ccc(O)cc2)nc2[nH]nc(C)c12` (stereo not shown) [Example 79, [6-(4-Hydroxy-phenyl)-3-methyl-1H-pyrazolo[3,4-b]pyridin-4-yl]-[2-(2-methoxy-phenyl)-piperazin-1-yl]-methanone]: the inhibition at 1.14 µM turned out to be 82%.

In the case of `Cc1n[nH]c2nc(-c3ccc(O)cc3)cc(C(=O)N3CCNCC34CC4)c12` [Example 80, (4,7-Diaza-spiro[2.5]oct-4-yl)-[6-(4-hydroxy-phenyl)-3-methyl-1H-pyrazolo[3,4-b]pyridin-4-yl]-methanone], the inhibition at 1.14 µM turned out to be 91%.

For the compound `Cc1n[nH]c2nc(-c3ccc(O)cc3)cc(C(=O)N3C[C@H](C)NC[C@H]3C)c12` [Example 81, ((2R,5S)-2,5-Dimethyl-piperazin-1-yl)-[6-(4-hydroxy-phenyl)-3-methyl-1H-pyrazolo[3,4-b]pyridin-4-yl]-methanone], the “% Inhibition” value was 76%.

As to `Cc1n[nH]c2nc(-c3ccc(O)cc3)cc(C(=O)N3CCNC[C@@H]3c3cccc(F)c3)c12` [Example 82, [(S)-2-(3-Fluoro-phenyl)-piperazin-1-yl]-[6-(4-hydroxy-phenyl)-3-methyl-1H-pyrazolo[3,4-b]pyridin-4-yl]-methanone], the inhibition at 1.14 µM was found to be 92%.

For `Cc1n[nH]c2nc(-c3ccc(O)cc3)cc(C(=O)N3C[C@@H](C)NC[C@H]3C)c12` [Example 83, ((2R,5R)-2,5-Dimethyl-piperazin-1-yl)-[6-(4-hydroxy-phenyl)-3-methyl-1H-pyrazolo[3,4-b]pyridin-4-yl]-methanone], the inhibition at 1.14 µM worked out at 104%.

Regarding `Cc1n[nH]c2nc(-c3ccc(O)cc3)cc(C(=O)N3CCNCC3c3ccc(F)cc3)c12` (stereo not shown) [Example 84, [2-(4-Fluoro-phenyl)-piperazin-1-yl]-[6-(4-hydroxy-phenyl)-3-methyl-1H-pyrazolo[3,4-b]pyridin-4-yl]-methanone], the inhibition at 1.14 µM turned out to be 101%.

Consider `Cc1n[nH]c2nc(-c3ccc(O)cc3)cc(C(=O)N3CCNCC3c3cccc(F)c3F)c12` (stereo not shown) [Example 85, [2-(2,3-Difluoro-phenyl)-piperazin-1-yl]-[6-(4-hydroxy-phenyl)-3-methyl-1H-pyrazolo[3,4-b]pyridin-4-yl]-methanone], for which the inhibition at 1.14 µM turned out to be 98%.

In the case of `Cc1n[nH]c2nc(-c3ccc(O)cc3)cc(C(=O)N3CCNC(C4CC4)C3)c12` (stereo not shown) [Example 86, (3-Cyclopropyl-piperazin-1-yl)-[6-(4-hydroxy-phenyl)-3-methyl-1H-pyrazolo[3,4-b]pyridin-4-yl]-methanone], the inhibition at 1.14 µM came to 96%.

`Cc1n[nH]c2nc(-c3ccc(O)cc3)cc(C(=O)N3CCNCC3c3cc(F)cc(F)c3)c12` (stereo not shown) [Example 87, [2-(3,5-Difluoro-phenyl)-piperazin-1-yl]-[6-(4-hydroxy-phenyl)-3-methyl-1H-pyrazolo[3,4-b]pyridin-4-yl]-methanone]: the inhibition at 1.14 µM is 93%.

For the compound `Cc1n[nH]c2nc(-c3ccc(O)cc3)cc(C(=O)N3C[C@H](C)NC[C@@H]3C)c12` [Example 88, ((2S,5S)-2,5-Dimethyl-piperazin-1-yl)-[6-(4-hydroxy-phenyl)-3-methyl-1H-pyrazolo[3,4-b]pyridin-4-yl]-methanone], the inhibition at 1.14 µM is 101%.

As to `Cc1n[nH]c2nc(-c3ccc(O)cc3)cc(C(=O)N3CCNCC3c3ccc(Br)cc3)c12` (stereo not shown) [Example 89, [2-(4-Bromo-phenyl)-piperazin-1-yl]-[6-(4-hydroxy-phenyl)-3-methyl-1H-pyrazolo[3,4-b]pyridin-4-yl]-methanone], the inhibition at 1.14 µM turned out to be 92%.

For the compound `Cc1n[nH]c2nc(-c3ccc(O)cc3)cc(C(=O)N3CC(CN)C3)c12` [Example 90, (3-Aminomethyl-azetidin-1-yl)-[6-(4-hydroxy-phenyl)-3-methyl-1H-pyrazolo[3,4-b]pyridin-4-yl]-methanone], the inhibition at 1.14 µM was determined as 96%.

As to `Cc1n[nH]c2nc(-c3ccc(O)cc3)cc(C(=O)N3CCNCC3c3cccc(F)c3)c12` (stereo not shown) [Example 91, [2-(3-Fluoro-phenyl)-piperazin-1-yl]-[6-(4-hydroxy-phenyl)-3-methyl-1H-pyrazolo[3,4-b]pyridin-4-yl]-methanone], the inhibition at 1.14 µM came to 93%.

Turning to `Cc1n[nH]c2nc(-c3ccc(O)cc3)cc(C(=O)N3CCNCC3c3ccc(F)c(F)c3)c12` (stereo not shown) [Example 92, [2-(3,4-Difluoro-phenyl)-piperazin-1-yl]-[6-(4-hydroxy-phenyl)-3-methyl-1H-pyrazolo[3,4-b]pyridin-4-yl]-methanone], the inhibition at 1.14 µM came to 95%.

(Values after US8686150B2 (Sanofi, priority 2011, dated 2014).)
